How the values were obtained:
[1] = biological target: T1, His-TEV-DYRK1A Kinase domain (aa127-485) (Homo sapiens, UniProt Q13627); assay: Kinase ADP assay (ADP Hunter), DYRK1A kinase domain; assay type: biochemical; settings: 20 μM ATP
T1 construct: His-TEV-DYRK1A Kinase domain (aa127-485); His tag (N); TEV protease cleavage site (N)
Description: The enzyme reaction was conducted in assay buffer (pH 7.4), containing 15 mM Hepes; 20 mM NaCl; 1 mM EGTA; 10 mM MgCl2; 0.02% Tween20 and 0.1 mg/ml Bovine-y-globulin. Test compounds of the invention were added in reaction buffer in a range of concentrations for 10 minutes at 30° C. in the presence of 20 nM DYRK1A enzyme, 40 μM peptide substrate and 20 μM ATP. Detection reagents (DiscoveRx 90-0083), ADP Hunter Plus Reagent A and then ADP Hunter Plus Reagent B were added. After a following 20 minutes incubation at 30° C., ADP Hunter Plus Stop Solution was added. The fluorescence intensity was measured at 590 nm.

DYRK1A [2] = biological target: T2, DYRK1A (Homo sapiens, UniProt Q13627); assay: Kinase TR-FRET assay, DYRK1A; assay type: biochemical; parameters: full-length, wild-type human DYRK1A (NM_001396) with an HA tag; expressed in transfected cells; host or cells: human U2-OS osteosarcoma cells, transient transfection of a pcDNA3.1 plasmid; settings: full-length human kinase, 10 μM ATP
Description: Inhibition of the enzymatic activity of human kinases was evaluated in a Time-Resolved Fluorescence Resonance Energy Transfer (TR-FRET) assay in 384-well reaction plates. […] Test compounds of the invention were added in reaction buffer at a range of concentrations from 0.1 nM to 30 μM. Following addition of EDTA (Sigma E7889, 10 mM) to stop the reaction, Europium-labelled mouse monoclonal antibody recognizing phospho-Thr232 in MBP (Perkin Elmer TRF0201, 1 nM) was added.

DYRK1A [3] = biological target: T2, DYRK1A; assay: Cellular DYRK1 autophosphorylation assay in U2-OS cells; assay type: cell-based; parameters: full-length, wild-type human DYRK1A (NM_001396) with an HA tag; expressed in transfected cells; host or cells: human U2-OS osteosarcoma cells, transient transfection of a pcDNA3.1 plasmid; settings: U2-OS cells transfected with HA-tagged human DYRK1A, 5 hours exposure; read-out: IC50 (μM) P-Ser520-Dyrk1A -Cell assay
Description: On day 2, cells were exposed to a range of concentrations of the test compounds of the invention for 5 hours. […] The relative levels of phospho-Ser520-DYRK1A were assayed using either western blotting or the Mesoscale ELISA platform. For analysis by western blot, lysates were diluted into Laemmli sample buffer (Bio-Rad) containing 5% v/v β-mercaptoethanol, heated for 5 min at 95° C., and resolved on Tris-glycine gels or NuPage Bis-Tris gels (Novex; Invitrogen). Biotinylated molecular weight standards (Cell Signaling Technology) were included in all gels. Proteins were transferred to nitrocellulose membranes (Hybond, ECL; Amersham), which were blocked in Tris-buffered saline/0.1% tween 20 (TBST) containing 5% milk, and probed at 4° C. overnight with anti-phospho-Ser520-DYRK1A antibody (Eurogentec SE6974-75; 0.23 μg/ml in 5% BSA) or anti DYRK1A antibody (Abnova H00001859; 0.5 μg/ml in 5% milk). Peroxidase-conjugated secondary antibodies were diluted into 5% milk and applied to membranes for 1 h at 20° C. Chemiluminescence detection was performed using the ECL plus western blotting detection kit (Amersham) and was recorded on ECL plus hyperfilm (Amersham). Blots were scanned using the Bio-Rad GS-800 calibrated densitometer and quantitative analysis of western blots was performed using TotalLab software (Amersham). IC50 values for inhibition of phospho-Ser520-DYRK1A were calculated from dose-response curves plotting the ratio between phospho-Ser520-DYRK1A and total DYRK1A signals at each concentration. […] Anti-phospho-Ser520-DYRK1A antibody (Eurogentec SE6974-75; […]) and anti DYRK1A antibody (Abnova H00001859; 3 μg/ml) was then added for 1 hour at RT, followed by addition of Sulfa-TAG anti-rabbit detection antibody (ref MSD R32AB; 1 μg/ml) and Sulfa-TAG anti-mouse detection antibody (ref MSD R32-AC-1; 1 μg/ml). After a further 1 hour, Read Buffer was added and plates were read on the Sector Imager 2400 (Mesoscale). IC50 values for inhibition of phospho-Ser520-DYRK1A were calculated from dose-response curves.

SMILES	IC50 [1] [µM]	IC50 (DYRK1A [2]) [µM]	IC50 (DYRK1A [3]) [µM]
Cc1nc2ccc(-c3cc(N)nc(N)c3)nc2n1Cc1ccccc1 [Example 8, 4-(3-benzyl-2-methyl-3H-imidazo[4,5-b]pyridin-5-yl)pyridine-2,6-diamine]	0.128	0.061	
Cc1nc2ccc(-c3cc(N)nc(N)c3)nc2n1[C@H]1C[C@H]2C[C@@H]([C@@H]1C)C2(C)C [Example 16, 4-[2-methyl-3-[(1S,2S,3S,5R)-2,6,6-trimethylbicyclo[3.1.1]hept-3-yl]-3H-imidazo[4,5-b]pyridin-5-yl]pyridine-2,6-diamine]	0.367	0.153	
Cc1nc2ccc(-c3cc(N)nc(N)c3)nc2n1CC12CC3CC(CC(C3)C1)C2 [Example 22, 4-{2-methyl-3-tricyclo[3.3.1.1^3,7]dec-1-ylmethyl-3H-imidazo[4,5-b]pyridin-5-yl}pyridine-2,6-diamine]	0.364	0.069	
Cc1cc([C@@H](C)n2c(C)nc3ccc(-c4cc(N)nc(N)c4)nc32)ccn1 [Example 32, 4-{2-methyl-3-[(I R)-1-(2-methylpyridin-4-yl)ethyl]-3H-imidazo[4,5-b]pyridin-5-yl}pyridine-2,6-diamine]	0.037	0.095	
CCC(C)n1c(C)nc2ccc(-c3cc(N)nc(N)c3)nc21 (stereo not drawn) [Example 33, 4-[3-(butan-2-yl)-2-methyl-3H-imidazo[4,5-b]pyridin-5-yl]pyridine-2,6-diamine]	0.018	0.045	
CCOC(=O)N1CCC(n2c(C)nc3ccc(-c4cc(N)nc(N)c4)nc32)CC1 [Example 35]	0.008	0.012	
Cc1nc2ccc(-c3cc(N)nc(N)c3)nc2n1CC(O)CO (stereo not drawn) [Example 37, 3-[5-(2,6-diaminopyridin-4-yl)-2-methyl-3H-imidazo[4,5-b]pyridin-3-yl]propane-1,2-diol]	0.027	0.052	
Cc1nc2ccc(-c3cc(N)nc(N)c3)nc2n1C1CCN(C(=O)C(C)C)CC1 [Example 38, 1-{4-[5-(2,6-diaminopyridin-4-yl)-2-methyl-3H-imidazo[4,5-b]pyridin-3-yl]piperidin-1-yl}-2-methylpropan-1-one]	0.008	0.028	
Cc1nc2ccc(-c3cc(N)nc(N)c3)nc2n1CC(C)(C)Oc1ccccc1 [Example 116, 4-[2-methyl-3-(2-methyl-2-phenoxypropyl)-3H-imidazo[4,5-b]pyridin-5-yl]pyridine-2,6-diamine]	0.056		0.267
Cc1cccc(O[C@@H](C)Cn2c(C)nc3ccc(-c4cc(N)nc(N)c4)nc32)c1 [Example 127, 4-{2-methyl-3-[(2S)-2-(3-methylphenoxy)propyl]0.3H-imidazo[4,5-b]pyridin-5-yl}pyridine-2,6-diamine]	0.015		0.089
Cc1nc2ccc(-c3cc(N)nc(N)c3)nc2n1CCCOc1ccccc1 [Example 143, 4-[2-methyl-3-(3-phenoxypropyl)-3H-imidazo[4,5-b]pyridin-5-yl]pyridine-2,6-diamine]	0.013		0.037
Cc1nc2ccc(-c3cc(N)nc(N)c3)nc2n1CCOc1ccc(Cl)cn1 [Example 164, 4-(3-{2-[(5-chloropyridin-2-yl)oxy]ethyl}-2-methyl-3H-imidazo[4,5-b]pyridin-5-yl)pyridine-2,6-diamine]	0.032		0.152
Cc1nc2ccc(-c3cc(N)nc(N)c3)nc2n1CCOc1ncccc1Cl [Example 166, 4-(3-{2-[(3-chloropyridin-2-yl)oxy]ethyl}-2-methyl-3H-imidazo[4,5-b]pyridin-5-yl)pyridine-2,6-diamine]	0.085		0.25
Cc1nc2ccc(-c3cc(N)nc(N)c3)nc2n1CCOc1cccc(F)n1 [Example 167, 4-(3-{2-[(6-fluoropyridin-2-yl)oxy]ethyl}-2-methyl-3H-imidazo[4,5-b]pyridin-5-yl)pyridine-2,6-diamine]	0.011		0.011
Cc1nc2ccc(-c3cc(N)nc(N)c3)nc2n1CCOc1ccc(Br)cn1 [Example 170, 4-(3-{2-[(5-bromopyridin-2-yl)oxy]ethyl}-2-methyl-3H-imidazo[4,5-b]pyridin-5-yl)pyridine-2,6-diamine]	0.035		0.131
Cc1nc2ccc(-c3cc(N)nc(N)c3)nc2n1CCOc1ccc(F)cn1 [Example 171, 4-(3-{2-[(5-fluoropyridin-2-yl)oxy]ethyl}-2-methyl-3H-imidazo[4,5-b]pyridin-5-yl)pyridine-2,6-diamine]	0.018		0.109
Cc1nc2ccc(-c3cc(N)nc(N)c3)nc2n1CCOc1cccc(CF)n1 [Example 172, 4-[3-(2-{[6-(fluoromethyl)pyridin-2-yl]oxy}ethyl)-2-methyl-3H-imidazo[4,5-b]pyridin-5-yl]pyridine-2,6-diamine]	0.007		0.092
Cc1nc2ccc(-c3cc(N)nc(N)c3)nc2n1CCOc1cccc(C(F)F)n1 [Example 173, 4-[3-(2-{[6-(difluoromethyl)pyridin-2-yl]oxy}ethyl)-2-methyl-3H-imidazo[4,5-b]pyridin-5-yl]pyridine-2,6-diamine]	0.007		0.017
Cc1nc2ccc(-c3cc(N)nc(N)c3)nc2n1CCOc1cccc(C(F)(F)F)n1 [Example 194, 4-[2-methyl-3-(2-{[6-(trifluoromethyl)pyridin-2-yl]oxy}ethyl)-3H-imidazo[4,5-b]pyridin-5-yl]pyridine-2,6-diamine]	0.007		0.02
Cc1cccc(OCCn2c(C)nc3ccc(-c4cc(N)nc(N)c4)nc32)n1 [Example 195, 4-(2-methyl-3-{2-[(6-methylpyridin-2-yl)oxy]ethyl}-3H-imidazo[4,5-b]pyridin-5-yl)pyridine-2,6-diamine]	0.013		0.106
Cc1nc2ccc(-c3cc(N)nc(N)c3)nc2n1CCOc1cccc(N)n1 [Example 196, 4-(3-{2-[(6-aminopyridin-2-yl)oxy]ethyl}-2-methyl-3H-imidazo[4,5-b]pyridin-5-yl)pyridine-2,6-diamine]	0.012		0.141
Cc1nc2ccc(-c3cc(N)nc(N)c3)nc2n1CCOc1cccc(C#N)n1 [Example 197, 6-{2-[5-(2,6-diaminopyridin-4-yl)-2-methyl-3H-imidazo[4,5-b]pyridin-3-yl]ethoxy}pyridine-2-carbonitrile]	0.007		0.054
Cc1ccc(OCCn2c(C)nc3ccc(-c4cc(N)nc(N)c4)nc32)cc1 [Example 208, 4-{2-methyl-3-[2-(4-methylphenoxy)ethyl]-3H-imidazo[4,5-b]pyridin-5-yl}pyridine-2,6-diamine]	0.016		0.155
Cc1nc2ccc(-c3cc(N)nc(F)c3)nc2n1C1CC(F)(F)C1 [Example 240, 4-[3-(3,3-difluorocyclobutyl)-2-methyl-3H-imidazo[4,5-b]pyridin-5-yl]-6-fluoropyridin-2-amine]	0.016		0.153

From patent US20180273528A1 (LES LABORATOIRES SERVIER, priority 2015, published 2018)
